Drawing on patent publication US9556130B2, “4-oxo-3,4-dihydro-1,2,3-benzotriazine modulators of GPR139” (Takeda Pharmaceutical Company Limited, priority 2014, dated 2017), this text covers EC50 and Ki for 24 molecules.

Experiment [1] concerns the target T1, human GPR139 receptor (Homo sapiens (Human), UniProt Q6DWJ6). The experiment is described as follows: Activation of Calcium Signaling of GPR139 In Vitro Assay.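 Further: receptor expression induced with doxycycline, calcium fluorescence read continuously for one minute after compound addition, EC50 taken from a four-parameter logistic fit.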 The class given is cell-based. Particulars: stably transfected CHO-TRex cells, Calcium 5 dye, FLIPR Tetra.
In experiment [2] the target is T1, human GPR139 receptor. The experiment is described as follows: GPR139 Competition Binding.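 Further: receptor expression induced with doxycycline before membrane preparation, bound radioactivity counted by scintillation, Ki fitted with a four-parameter logistic model.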 The note with it: stably transfected CHO-TRex membranes, 1 nM 3H radioligand; read-out: GPR139 Inhibition (Ki (nM)).

T1 sequence (Q6DWJ6 whole entry): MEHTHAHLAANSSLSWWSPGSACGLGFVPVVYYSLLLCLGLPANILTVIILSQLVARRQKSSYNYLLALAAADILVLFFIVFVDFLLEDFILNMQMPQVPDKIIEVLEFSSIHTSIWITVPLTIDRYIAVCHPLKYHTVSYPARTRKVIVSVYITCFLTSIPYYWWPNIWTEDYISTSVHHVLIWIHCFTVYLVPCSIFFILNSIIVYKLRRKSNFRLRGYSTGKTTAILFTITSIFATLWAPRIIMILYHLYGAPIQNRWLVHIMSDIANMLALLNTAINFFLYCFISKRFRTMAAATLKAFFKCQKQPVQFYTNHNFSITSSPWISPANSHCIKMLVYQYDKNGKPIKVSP

Take `COc1cc(C)ccc1[C@H](C)NC(=O)[C@@H](C)n1nnc2ccccc2c1=O` [Example 51, (R)—N—((S)-1-(2-methoxy-4-methylphenyl)ethyl)-2-(4-oxobenzo[d][1,2,3]triazin-3(4H)-yl)propanamide]: the EC50 (in general, the concentration giving half of the maximal effect) in experiment [1] came to 16 nM.
Take `Cc1ccc([C@H](C)NC(=O)Cn2nnc3cccc(C)c3c2=O)cc1` [Example 39, (S)-2-(5-methyl-4-oxobenzo[d][1,2,3]triazin-3 (4H)-yl)-N-(1-p-tolylethyl)acetamide]: the Ki (in general, the dissociation constant of the complex between target and ligand, obtained from inhibition or displacement) in experiment [2] is 92 nM. For the same molecule, the EC50 in experiment [1] worked out at 6 nM.
Turning to `C[C@H](NC(=O)Cn1nnc2ccc(F)cc2c1=O)c1ccc(OC(F)(F)F)cc1` [Example 55, (S)-2-(6-fluoro-4-oxobenzo[d][1,2,3]triazin-3(4H)-yl)-N-(1-(4-(trifluoromethoxy)phenyl)ethyl)acetamide], in experiment [2], the inhibition constant Ki is 42 nM. In experiment [1], the EC50 is 38 nM.
On to `C[C@H](NC(=O)Cn1nnc2ccccc2c1=O)c1ccc(F)cc1Cl` [Example 47, (S)—N-(1-(2-chloro-4-fluorophenyl)ethyl)-2-(4-oxobenzo[d][1,2,3]triazin-3(4H)-yl)acetamide], for which the EC50 in experiment [1] is 14 nM.
Regarding `COc1cccc2c(=O)n(CC(=O)N[C@@H](C)c3ccc(C(F)(F)F)cc3)nnc12` [Example 63, (S)-2-(8-methoxy-4-oxobenzo[d][1,2,3]triazin-3 (4H)-yl)-N-(1-(4-(trifluoromethyl)phenyl)ethyl)acetamide], the Ki in experiment [2] is 352 nM. In addition, in experiment [1], the EC50 turned out to be 50 nM.
Regarding `C[C@H](NC(=O)Cn1nnc2ccc(F)cc2c1=O)c1ccc(OC(F)F)cc1` [Example 68, (S)—N-(1-(4-(difluoromethoxy)phenyl)ethyl)-2-(6-fluoro-4-oxobenzo[d][1,2,3]triazin-3(4H)-yl)acetamide], in experiment [2], the Ki stood at 282 nM. Also, the EC50 in experiment [1] was 10 nM.
Turning to `COc1cccc2c(=O)n(CC(=O)N[C@@H](C)c3ccc(OC(F)(F)F)cc3)nnc12` [Example 62, (S)-2-(8-methoxy-4-oxobenzo[d][1,2,3]triazin-3(4H)-yl)-N-(1-(4-(trifluoromethoxy)phenyl)ethyl)acetamide], in experiment [2], the Ki turned out to be 240 nM. In experiment [1], the EC50 is 25 nM.
With `Cc1ccc([C@H](C)NC(=O)Cn2nnc3c(Cl)cccc3c2=O)cc1` [Example 22, (S)-2-(8-chloro-4-oxobenzo[d][1,2,3]triazin-3(4H)-yl)-N-(1-p-tolylethyl)acetamide], the Ki in experiment [2] was 110 nM. Also, the EC50 in experiment [1] stood at 7 nM.
Consider `C[C@H](NC(=O)Cn1nnc2ccc(F)cc2c1=O)c1ccc(OC(F)(F)F)cc1F` [Example 71, (S)—N-(1-(2-fluoro-4-(trifluoromethoxy)phenyl)ethyl)-2-(6-fluoro-4-oxobenzo[d][1,2,3]triazin-3(4H)-yl)acetamide], for which the EC50 in experiment [1] was found to be 49 nM.
Consider `COc1ccc([C@H](C)NC(=O)Cn2nnc3c(C)cccc3c2=O)cc1` [Example 25, (S)—N-(1-(4-methoxyphenyl)ethyl)-2-(8-methyl-4-oxobenzo[d][1,2,3]triazin-3 (4H)-yl)acetamide], for which the Ki in experiment [2] worked out at 526 nM. The EC50 in experiment [1] was 8 nM.
As to `COc1cccc2nnn(CC(=O)N[C@@H](C)c3ccc(C(F)(F)F)cc3)c(=O)c12` [Example 61, (S)-2-(5-methoxy-4-oxobenzo[d][1,2,3]triazin-3 (4H)-yl)-N-(1-(4-(trifluoromethyl)phenyl)ethyl)acetamide], the Ki in experiment [2] came out at 26 nM. Also, the EC50 in experiment [1] was 15 nM.
In the case of `COc1ccc([C@H](C)NC(=O)Cn2nnc3cc(C)ccc3c2=O)cc1` [Example 35, (S)—N-(1-(4-methoxyphenyl)ethyl)-2-(7-methyl-4-oxobenzo[d][1,2,3]triazin-3(4H)-yl)acetamide], the Ki in experiment [2] came to 1520 nM. Besides, the EC50 in experiment [1] stood at 42 nM.
On to `Cc1ccc([C@H](C)NC(=O)Cn2nnc3cc(Cl)ccc3c2=O)cc1` [Example 21, (S)-2-(7-chloro-4-oxobenzo[d][1,2,3]triazin-3(4H)-yl)-N-(1-p-tolylethyl)acetamide], for which, in experiment [2], the Ki was found to be 173 nM. In addition, the EC50 in experiment [1] is 17 nM.
In the case of `Cc1ccc([C@H](C)NC(=O)Cn2nnc3c(C)cc(C)cc3c2=O)cc1` [Example 41, (S)-2-(6,8-dimethyl-4-oxobenzo[d][1,2,3]triazin-3(4H)-yl)-N-(1-p-tolylethyl)acetamide], the inhibition constant Ki in experiment [2] came to 10 nM. For the same molecule, the 50% effective concentration (EC50) in experiment [1] was found to be 7 nM.
`COc1ccc([C@H](C)NC(=O)Cn2nnc3cccc(F)c3c2=O)cc1` [Example 33, (S)-2-(5-fluoro-4-oxobenzo[d][1,2,3]triazin-3(4H)-yl)-N-(1-(4-methoxyphenyl)ethyl)acetamide]: the Ki in experiment [2] is 4850 nM. Also, the EC50 in experiment [1] is 41 nM.
For `Cc1ccc([C@H](C)NC(=O)Cn2nnc3ccc(F)cc3c2=O)c(C)c1` [Example 52, (S)—N-(1-(2,4-dimethylphenyl)ethyl)-2-(6-fluoro-4-oxobenzo[d][1,2,3]triazin-3(4H)-yl)acetamide] the same measures were 39 nM and 24 nM.
As to `Cc1ccc([C@H](C)NC(=O)Cn2nnc3cc(C)ccc3c2=O)cc1` [Example 34, (S)-2-(7-methyl-4-oxobenzo[d][1,2,3]triazin-3(4H)-yl)-N-(1-p-tolylethyl)acetamide], in experiment [2], the inhibitory constant (Ki) was found to be 347 nM. The EC50 in experiment [1] was 7 nM.
Regarding `COc1ccc2nnn(CC(=O)N[C@@H](C)c3ccc(C(F)(F)F)cc3)c(=O)c2c1` [Example 60, (S)-2-(6-methoxy-4-oxobenzo[d][1,2,3]triazin-3(4H)-yl)-N-(1-(4-(trifluoromethyl)phenyl)ethyl)acetamide], the Ki in experiment [2] worked out at 115 nM. For the same molecule, the EC50 in experiment [1] worked out at 18 nM.
With `Cc1ccc([C@H](C)NC(=O)Cn2nnc3c(F)cccc3c2=O)cc1` [Example 16, (S)-2-(8-fluoro-4-oxobenzo[d][1,2,3]triazin-3(4H)-yl)-N-(1-p-tolylethyl)acetamide], the inhibition constant (Ki) in experiment [2] was determined as 708 nM. Moreover, the EC50 in experiment [1] worked out at 9 nM.
On to `COc1cc(C)ccc1[C@H](C)NC(=O)[C@H](C)n1nnc2ccccc2c1=O` [Example 50, (S)—N—((S)-1-(2-methoxy-4-methylphenyl)ethyl)-2-(4-oxobenzo[d][1,2,3]triazin-3(4H)-yl)propanamide], for which the EC50 in experiment [1] was 52 nM.
On to `C[C@H](NC(=O)Cn1nnc2ccccc2c1=O)c1ccc(F)cc1Br` [Example 48, (S)—N-(1-(2-bromo-4-fluorophenyl)ethyl)-2-(4-oxobenzo[d][1,2,3]triazin-3(4H)-yl)acetamide], for which, in experiment [1], the EC50 was 1510 nM.
On to `COc1ccc([C@H](C)NC(=O)Cn2nnc3ccc(C)cc3c2=O)cc1` [Example 29, (S)—N-(1-(4-methoxyphenyl)ethyl)-2-(6-methyl-4-oxobenzo[d][1,2,3]triazin-3(4H)-yl)acetamide], for which, in experiment [1], the half-maximal effective concentration (EC50) was 19 nM.
On the same count and under the same terms, as for `COc1ccc([C@H](C)NC(=O)Cn2nnc3c(OC)cccc3c2=O)cc1` [Example 31, (S)-2-(8-methoxy-4-oxobenzo[d][1,2,3]triazin-3 (4H)-yl)-N-(1-(4-methoxyphenyl)ethyl)acetamide], the figure is 39 nM; as for `COc1ccc(CCN(C)C(=O)Cn2nnc3ccccc3c2=O)cc1` [Example 78, N-(4-methoxyphenethyl)-N-methyl-2-(4-oxobenzo[d][1,2,3]triazin-3(4H)-yl)acetamide], 80 nM.
